Results taken from PubChem BioAssay AID2060351 (Molecular Pharmacology Branch, DTP, NCI, 2025).

Test system: 521955-158-R7-J2-PDC spheroids, viability % test/control
Experiment: Anticancer human tumor 521955-158-R7-J2-PDC patient-derived pancreatic carcinoma cell line growth inhibition [TAK]
Conditions: spheroids with HUVEC and MSC; for IC50: curve of first compound; for viability, T/C: stronger effect = lower value
Description: Combinatorial screen of targeted agents with TAK-243 and ipatasertib in multi-cell type tumor spheroids
A high-throughput screen of multi-cell type tumor spheroids was designed to identify active combinations of targeted small molecules and TAK-243 or ipatasertib. Complex spheroids include a stromal component modeled by human endothelial cells (HUVEC) and fibroblasts modeled by human mesenchymal stem cells (MSCs). The concentration ranges selected for each drug and investigational agent were based upon clinically achievable concentrations if the clinical Cmax of the agent was known.
Compounds. The drugs and investigational agents: TAK-243 (785004), ipatasertib (767898), everolimus (733504), selumetinib (741078), bortezomib (756655), trametinib (758246), ixazomib (758254), vemurafenib (761431), dabrafenib (764134), sapanisertib (764658), alpelisib (765974), and copanlisib (816437), were obtained from the National Cancer Institute (NCI) Developmental Therapeutics Program Chemical Repository. The FDA-approved anticancer drug set is available from the NCI Developmental Therapeutics Program. […] The stock solutions were prepared in dimethyl sulfoxide (DMSO, Sigma-Aldrich, St. Louis, MO, cat. D2650) at 800-fold the tested concentration and stored at -70 degrees C prior to their use. All drugs and investigational agents were tested over a range starting from a high concentration at or near the clinical Cmax and decreasing in half-log increments. If the clinical Cmax for an agent had not been determined, the highest concentration tested was 10 microM.
NCI60 Cell Culture. NCI60 cell lines were obtained from the NCI Developmental Therapeutics Program Tumor Repository. For each lot of cells, the Repository performed Applied Biosystems AmpFLSTR Identifiler testing with PCR amplification to confirm consistency with the published Identifier STR profile for each cell line. Cells were kept in continuous culture for no more than 20 passages. The optimal seeding densities for each of the cell lines at each time point assessed were determined prior to performing the concentration response studies. Briefly, the NCI60 human tumor lines were grown as monolayers in RPMI 1640 medium supplemented with 10% FBS and 2 mmol/L L-glutamine.
An additional 2 lines were from the NCI60 cell line panel including melanomas, MALME-3M and SK-MEL-2. Pooled donor human umbilical vein endothelial cells (HUVEC, Lonza, cat. CC-2519) and human mesenchymal stem cells (hMSC, Lonza, cat. PT-2501) were purchased from Lonza (Walkersville, MD).
PDMR cell lines were grown in complete medium (DC medium): Dulbecco's modified Eagle's medium (DMEM)/F12 supplemented with 5% fetal bovine serum (FBS), 2 mM L-glutamine, 100 U/mL penicillin and 100 µg/ml streptomycin, 0.4 µg/ml hydrocortisone, 10 ng/ml epidermal growth factor (EGF) recombinant human protein, 24 µg/mL adenine, and 0.1 mg/mL primocin. During culture from frozen stock vials, PDMR cells were cultured in the same medium containing 10 µM Y-27632 (see Table 3). The PDCs were cultured in complete DMEM/F12 media without 10 microM Y-27632 dihydrochloride for at least two passages prior to the screen. The pooled donor HUVEC and hMSC were cultured in endothelial cell growth medium 2 (PromoCell, Heidelberg, Germany, cat. C-22011) and mesenchymal stem cell growth medium 2 (PromoCell, cat. C-28009), respectively. For all experiments, HUVEC and hMSC were used at passages </=5.
For the pre-screen, cell seeding densities were determined from a titration spanning the range from 5,000 to 313 cells per well. The mct-spheroids including 60% malignant cells, 25% HUVEC and 15% MSC dispensed as a mixture into U-bottom Ultra-Low Attachment 384-well plates (Corning, NY)
High-throughput Drug Combination Screening.
Prior to their inoculation into 384-well plates, malignant cells, HUVEC, and hMSC were removed from T flasks using TrypLE express (Thermo Fisher Scientific, cat. 12605036) and harvested by centrifugation for 5 min at 233 x g. […]
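Note: spheroids exposed to compound for 7 days before readout.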

Cn1cnc2c(F)c(Nc3ccc(Br)cc3Cl)c(C(=O)NOCCO)cc21 + CC(C)NCC(C(=O)N1CCN(c2ncnc3c2C(C)CC3O)CC1)c1ccc(Cl)cc1
IC50 (second compound 0.3 µM): 108 nM
IC50 (second compound 0.949 µM): 65 nM
IC50 (second compound 3 µM): 33.9 nM
IC50 (second compound 9.49 µM): 19.9 nM
IC50 (second compound 30 µM): 17.4 nM
viability, T/C (second compound 0.3 µM, first compound 0.00949 µM): 71.3%
viability, T/C (second compound 0.3 µM, first compound 0.03 µM): 61.7%
viability, T/C (second compound 0.3 µM, first compound 0.0949 µM): 45.6%
viability, T/C (second compound 0.3 µM, first compound 0.3 µM): 45.5%
viability, T/C (second compound 0.3 µM, first compound 0.949 µM): 28.2%
viability, T/C (second compound 0.3 µM, first compound 3 µM): 13.9%
viability, T/C (second compound 0.949 µM, first compound 0.00949 µM): 76.7%
viability, T/C (second compound 0.949 µM, first compound 0.03 µM): 55.5%
viability, T/C (second compound 0.949 µM, first compound 0.0949 µM): 46.3%
viability, T/C (second compound 0.949 µM, first compound 0.3 µM): 31.3%
viability, T/C (second compound 0.949 µM, first compound 0.949 µM): 25.5%
viability, T/C (second compound 0.949 µM, first compound 3 µM): 9.79%
viability, T/C (second compound 3 µM, first compound 0.00949 µM): 63.9%
viability, T/C (second compound 3 µM, first compound 0.03 µM): 54.7%
viability, T/C (second compound 3 µM, first compound 0.0949 µM): 32.4%
viability, T/C (second compound 3 µM, first compound 0.3 µM): 31.5%
viability, T/C (second compound 3 µM, first compound 0.949 µM): 23.7%
viability, T/C (second compound 3 µM, first compound 3 µM): 9.02%
viability, T/C (second compound 9.49 µM, first compound 0.00949 µM): 61.8%
viability, T/C (second compound 9.49 µM, first compound 0.03 µM): 40.4%
viability, T/C (second compound 9.49 µM, first compound 0.0949 µM): 34%
viability, T/C (second compound 9.49 µM, first compound 0.3 µM): 27.5%
viability, T/C (second compound 9.49 µM, first compound 0.949 µM): 25.7%
viability, T/C (second compound 9.49 µM, first compound 3 µM): 10.8%
viability, T/C (second compound 30 µM, first compound 0.00949 µM): 56.6%
viability, T/C (second compound 30 µM, first compound 0.03 µM): 43.3%
viability, T/C (second compound 30 µM, first compound 0.0949 µM): 34.6%
viability, T/C (second compound 30 µM, first compound 0.3 µM): 30%
viability, T/C (second compound 30 µM, first compound 0.949 µM): 17.6%
viability, T/C (second compound 30 µM, first compound 3 µM): 7.96%

CC(C)n1nc(-c2ccc3oc(N)nc3c2)c2c(N)ncnc21 + CC(C)NCC(C(=O)N1CCN(c2ncnc3c2C(C)CC3O)CC1)c1ccc(Cl)cc1
IC50 (second compound 0.3 µM): > 100 nM
IC50 (second compound 0.949 µM): > 100 nM
IC50 (second compound 3 µM): > 100 nM
IC50 (second compound 9.49 µM): > 100 nM
IC50 (second compound 30 µM): > 100 nM
viability, T/C (second compound 0.3 µM, first compound 0.000316 µM): 112%
viability, T/C (second compound 0.3 µM, first compound 0.001 µM): 74.7%
viability, T/C (second compound 0.3 µM, first compound 0.00316 µM): 78.8%
viability, T/C (second compound 0.3 µM, first compound 0.01 µM): 134%
viability, T/C (second compound 0.3 µM, first compound 0.0316 µM): 98.1%
viability, T/C (second compound 0.3 µM, first compound 0.1 µM): 69%
viability, T/C (second compound 0.949 µM, first compound 0.000316 µM): 118%
viability, T/C (second compound 0.949 µM, first compound 0.001 µM): 84.9%
viability, T/C (second compound 0.949 µM, first compound 0.00316 µM): 100%
viability, T/C (second compound 0.949 µM, first compound 0.01 µM): 75.3%
viability, T/C (second compound 0.949 µM, first compound 0.0316 µM): 99%
viability, T/C (second compound 0.949 µM, first compound 0.1 µM): 100%
viability, T/C (second compound 3 µM, first compound 0.000316 µM): 91.3%
viability, T/C (second compound 3 µM, first compound 0.001 µM): 105%
viability, T/C (second compound 3 µM, first compound 0.00316 µM): 86.8%
viability, T/C (second compound 3 µM, first compound 0.01 µM): 94.3%
viability, T/C (second compound 3 µM, first compound 0.0316 µM): 132%
viability, T/C (second compound 3 µM, first compound 0.1 µM): 120%
viability, T/C (second compound 9.49 µM, first compound 0.000316 µM): 89.9%
viability, T/C (second compound 9.49 µM, first compound 0.001 µM): 98.3%
viability, T/C (second compound 9.49 µM, first compound 0.00316 µM): 83.9%
viability, T/C (second compound 9.49 µM, first compound 0.01 µM): 113%
viability, T/C (second compound 9.49 µM, first compound 0.0316 µM): 120%
viability, T/C (second compound 9.49 µM, first compound 0.1 µM): 106%
viability, T/C (second compound 30 µM, first compound 0.000316 µM): 102%
viability, T/C (second compound 30 µM, first compound 0.001 µM): 115%
viability, T/C (second compound 30 µM, first compound 0.00316 µM): 103%
viability, T/C (second compound 30 µM, first compound 0.01 µM): 127%
viability, T/C (second compound 30 µM, first compound 0.0316 µM): 117%
viability, T/C (second compound 30 µM, first compound 0.1 µM): 80%
